In brackets after ≈: the same amount, converted by molar mass.
Key:
[1] = test system: Candida albicans ATCC 10231; assay: Anti-bacterial activity, minimum inhibitory concentration by agar dilution method; assay type: cell-based; conditions: ATCC10231, pH=7.0
Procedure: (§1) Minimum inhibitory concentration (μg/ml) was measured by the agar dilution method using a medium (pH=7.0) which was prepared by dissolving Bactotryptone medium (3 g; commercial product of Difco, U.S.A.), meat extract (3 g), yeast extract (1 g), glucose (1 g) and agar (16 g) in water (1 l).

[2] = test system: Bacillus subtilis No. 10707; assay: as above; assay type: cell-based; conditions: pH=7.0
Procedure: as §1

[3] = test system: Escherichia coli ATCC 26; assay: as above; assay type: cell-based; conditions: ATCC26, pH=7.0
Procedure: as §1

[4] = test system: Shigella sonnei ATCC 9290; assay: as above; assay type: cell-based; conditions: ATCC9290, pH=7.0
Procedure: as §1

[5] = test system: Pseudomonas aeruginosa Bin H No. 1; assay: as above; assay type: cell-based; conditions: pH=7.0
Procedure: as §1

[6] = test system: Enterococcus faecium ATCC 10541; assay: as above; assay type: cell-based; conditions: ATCC10541, pH=7.0
Procedure: as §1

[7] = test system: Staphylococcus aureus ATCC 6538P; assay: as above; assay type: cell-based; conditions: ATCC6538P, pH=7.0
Procedure: as §1

[8] = test system: Salmonella typhi ATCC 9992; assay: as above; assay type: cell-based; conditions: Salmonella enterica, read-out: Minimum inhibitory concentration
Procedure: as §1

[9] = test system: Klebsiella pneumonia ATCC 10031; assay: as above; assay type: cell-based; conditions: Klebsiella pneumoniae, ATCC10031, pH=7.0
Procedure: as §1

[10] = test system: MCF7 cells (ATCC HTB22); assay: Anti-tumour activity, MCF7 cell growth inhibition (neutral red); assay type: cell-based; conditions: Homo sapiens, 72 hours, 37° C., absorptivity at 550 nm
Procedure: MCF7 cells (ATCC HTB22) was add to RPMI-1640 medium (commercial product of Gibco, U.S.A.) containing 10 % fetal calf serum, insulin (10 μg/ml) and estradiol (10^-8 M) (hereinafter referred to as medium A) to prepare a cell suspension containing 4.5×10^4 cell/ml.
On each occasion, 0.1 ml of the suspension was poured into each well of a 96 well microtitre plate and incubated at a temperature of 37° C. for 20 hours in a carbon dioxide incubator. Then a test compound (each 0.05 ml) was added to each well, followed by incubation similarly for 72 hours. After removal of the supernatant, another medium (0.1 ml) containing medium A and 0.02% neutral red was added to the material for incubating similarly for one hour to dye the cells. The supernatant was removed, and the residue was washed once with physiological Saline. Then the dyestuff was removed by using an aqueous solution of ethanol (30%) containing 0.001N hydrochloric acid.
The absorptivity at 550 nm of the material was measured by the use of a microplate reader. The absorptivity of the treated cells was compared with the absorptivity of untreated cells to measure the IC50 value viz. the concentration of the test compound required to inhibit the growth of the cells by 50%.

[11] = Solubility in various solvents; assay type: physicochemical; conditions: for Solubility in various solvents (soluble): organic solvents; for Solubility in various solvents (insoluble): water, n-hexane where named

Row | SMILES | MIC [1] [µg/mL] | MIC [2] [µg/mL] | MIC [3] [µg/mL] | MIC [4] [µg/mL] | MIC [5] [µg/mL] | MIC [6] [µg/mL] | MIC [7] [µg/mL] | MIC [8] [µg/mL] | MIC [9] [µg/mL] | IC50 [10] [µg/mL] | Solubility in various solvents (soluble) [11] | Solubility in various solvents (insoluble) [11]
1 | CCCCC(C)/C=C(C)/C=C(\C)C(=O)NC1=CC(O)(/C=C/C=C/C=C/C(=O)NC2=C(O)CCC2=O)C2OC2C1=O (stereo not shown) [Manumycin, reference compound] | 21 (≈ 38.1 µM) | 0.3 (≈ 0.545 µM) | > 100 | > 100 | > 100 | 2.6 (≈ 4.72 µM) | 1.3 (≈ 2.36 µM) | > 100 | > 100 | 8.3 (≈ 15.1 µM) | – | –
2 | CCCCC(C)/C=C(\C)C(=O)NC1=CC(=O)C2OC2C1=O (stereo not shown) [UCF1-AX] | 10 (≈ 34.3 µM) | 1.3 (≈ 4.46 µM) | 21 (≈ 72.1 µM) | 10 (≈ 34.3 µM) | 83 (≈ 285 µM) | 10 (≈ 34.3 µM) | 10 (≈ 34.3 µM) | 21 (≈ 72.1 µM) | 21 (≈ 72.1 µM) | 18.9 (≈ 64.9 µM) | Soluble in chloroform, methanol and diethyl ether | Insoluble in water
3 | CCCCC(C)/C=C(\C)C(=O)NC1=CC(O)(/C=C/C=C/C=C/C(=O)NC2=C(O)CCC2=O)C2OC2C1=O (stereo not shown) [UCF1-A] | > 100 | 10 (≈ 19.6 µM) | > 100 | > 100 | > 100 | 10 (≈ 19.6 µM) | 2.6 (≈ 5.09 µM) | > 100 | > 100 | 12.5 (≈ 24.5 µM) | Soluble in chloroform, dimethylsulfoxide, ethyl acetate, methanol and acetone | Insoluble in n-hexane and water
4 | CCCCC(C)/C=C(C)/C=C/C(=O)NC1=CC(=O)C2OC2C1=O (stereo not shown) [UCF1-BX] | 42 (≈ 132 µM) | 0.16 (≈ 0.504 µM) | > 100 | > 100 | 83 (≈ 262 µM) | 0.65 (≈ 2.05 µM) | 8.3 (≈ 26.2 µM) | > 100 | > 100 | 7.5 (≈ 23.6 µM) | Soluble in chloroform, methanol and diethyl ether | Insoluble in water
5 | CCCCC(C)/C=C(C)/C=C/C(=O)NC1=CC(O)(/C=C/C=C/C=C/C(=O)NC2=C(O)CCC2=O)C2OC2C1=O (stereo not shown) [UCF1-B] | > 100 | 1.3 (≈ 2.42 µM) | > 100 | > 100 | > 100 | 10 (≈ 18.6 µM) | 2.6 (≈ 4.85 µM) | > 100 | > 100 | 7.3 (≈ 13.6 µM) | Soluble in chloroform, dimethylsulfoxide, ethyl acetate, methanol and acetone | Insoluble in n-hexane and water
